{"source": "patent US11085053B2", "about": "“Efficient selectivity of recombinant proteins” (REGENERON PHARMACEUTICALS, INC., priority 2014, dated 2021)", "test_system": "Modified CHO K1 cells", "experiment": "Selection efficiency of transfectant cells by FACS (GFP+ population)", "format": "cell-based, Chinese hamster", "from_the_text": "Modified CHO K1 cells were transfected with a plasmid vector containing CHO-GPT (SEQ ID NO: 2), human GPT (SEQ ID NO:12) or a plasmid vector containing a hygromycin phosphotransferase (Hpt, Hygromycin resistant gene); e.g. the selectable marker gene (CHO-GPT or hpt) was transcriptionally linked to a downstream eGFP gene via an IRES sequence, in their respective vectors. For example, each plasmid was constructed to contain the following gene sequences, in 5′ to 3′ direction: a Lox site, a SV40 late promoter, either CHO-GPT (or Hpt), IRES, enhanced green fluorescent protein (eGFP), and a second Lox site. Purified recombinant plasmids were transfected together with a plasmid that expresses Cre recombinase, into a modified CHO host cell line containing: from 5′ to 3′, a lox site, YFP, and a second lox site, at a transcriptionally active locus. Consequently, the host CHO cell can be isolated by flow cytometry as a green-positive or a yellow-negative cell. […]\nCell populations were either incubated with 0, 1 μg/ml, 2.5 μg/ml or 5 μg/ml tunicamycin (Tn) or 400 μg hygromycin (Hyg), as outlined in Table 2. Observed recombinant populations (ORPs) were measured by fluorescent-activated cell sorting (FACS) analysis. Cells were sorted to quantitate each population of cells, and selection efficiency was calculated for cells expressing only GFP and not YFP (FIG. 4 or 5). […]", "data": [{"substance": "tunicamycin", "values": [{"measurement": "Selection efficiency compared with hygromycin selection", "result": "as efficient as hygromycin selection"}]}]}
